Source: ChEMBL document CHEMBL1201862, “PubChem BioAssay data set” (2004)
Activity calls are given as the source filed them.

Assays:
Type in all cases: functional
[1] = target: Testis-specific serine/threonine-protein kinase 1 (Homo sapiens, UniProt Q9BXA7)
Aurora kinase A = Aurora kinase A (Homo sapiens, UniProt O14965);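 also: value from the Navigating the Kinome kinase panel profiling, panel entry STK6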
[2] = target: Tyrosine-protein kinase ABL1 (Homo sapiens, UniProt P00519)
[3] = target: Serine/threonine-protein kinase PLK3 (Homo sapiens, UniProt Q9H4B4)
[4] = target: Receptor tyrosine-protein kinase erbB-4 (Homo sapiens, UniProt Q15303);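 also: ERBB4 member of a kinome-wide kinase profiling panel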
[5] = target: Tyrosine-protein kinase BTK (Homo sapiens, UniProt Q06187)
[6] = target: Mitogen-activated protein kinase 8 (Homo sapiens, UniProt P45983);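 also: value comes from one member of a kinome-wide kinase profiling panel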
[7] = target: T1, Interleukin-1 receptor-associated kinase 4 (Homo sapiens, UniProt Q9NWZ3)
T1 sequence (Q9NWZ3 whole entry): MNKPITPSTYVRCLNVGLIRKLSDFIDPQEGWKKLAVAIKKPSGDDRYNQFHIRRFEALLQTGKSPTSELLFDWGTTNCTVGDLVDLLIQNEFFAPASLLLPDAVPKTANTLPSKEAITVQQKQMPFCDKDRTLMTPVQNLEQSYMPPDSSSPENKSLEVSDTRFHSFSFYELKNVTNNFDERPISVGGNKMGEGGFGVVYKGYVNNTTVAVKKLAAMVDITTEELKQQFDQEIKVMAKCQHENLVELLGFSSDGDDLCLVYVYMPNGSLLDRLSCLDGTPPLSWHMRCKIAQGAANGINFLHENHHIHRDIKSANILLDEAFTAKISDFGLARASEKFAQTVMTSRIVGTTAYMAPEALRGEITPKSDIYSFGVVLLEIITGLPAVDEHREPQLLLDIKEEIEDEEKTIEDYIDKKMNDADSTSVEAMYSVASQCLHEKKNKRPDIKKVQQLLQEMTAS

[8] = target: Vascular endothelial growth factor receptor 1 (Homo sapiens, UniProt P17948);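 also: measured within a kinome-wide profiling panel, FLT1 as the panel member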
[9] = target: Death-associated protein kinase 3 (Homo sapiens, UniProt O43293);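 also: measured as one member of a kinome-wide profiling panel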
[10] = target: Protein kinase C gamma type (Homo sapiens, UniProt P05129)
[11] = target: Casein kinase II subunit alpha (Homo sapiens, UniProt P68400)
[12] = target: Serine/threonine-protein kinase Chk1 (Homo sapiens, UniProt O14757);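 also: measured as one member of a kinome-wide kinase profiling panel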
[13] = target: T2, Serine/threonine-protein kinase TAO1 (Homo sapiens, UniProt Q7L7X3)
T2 sequence (Q7L7X3 whole entry): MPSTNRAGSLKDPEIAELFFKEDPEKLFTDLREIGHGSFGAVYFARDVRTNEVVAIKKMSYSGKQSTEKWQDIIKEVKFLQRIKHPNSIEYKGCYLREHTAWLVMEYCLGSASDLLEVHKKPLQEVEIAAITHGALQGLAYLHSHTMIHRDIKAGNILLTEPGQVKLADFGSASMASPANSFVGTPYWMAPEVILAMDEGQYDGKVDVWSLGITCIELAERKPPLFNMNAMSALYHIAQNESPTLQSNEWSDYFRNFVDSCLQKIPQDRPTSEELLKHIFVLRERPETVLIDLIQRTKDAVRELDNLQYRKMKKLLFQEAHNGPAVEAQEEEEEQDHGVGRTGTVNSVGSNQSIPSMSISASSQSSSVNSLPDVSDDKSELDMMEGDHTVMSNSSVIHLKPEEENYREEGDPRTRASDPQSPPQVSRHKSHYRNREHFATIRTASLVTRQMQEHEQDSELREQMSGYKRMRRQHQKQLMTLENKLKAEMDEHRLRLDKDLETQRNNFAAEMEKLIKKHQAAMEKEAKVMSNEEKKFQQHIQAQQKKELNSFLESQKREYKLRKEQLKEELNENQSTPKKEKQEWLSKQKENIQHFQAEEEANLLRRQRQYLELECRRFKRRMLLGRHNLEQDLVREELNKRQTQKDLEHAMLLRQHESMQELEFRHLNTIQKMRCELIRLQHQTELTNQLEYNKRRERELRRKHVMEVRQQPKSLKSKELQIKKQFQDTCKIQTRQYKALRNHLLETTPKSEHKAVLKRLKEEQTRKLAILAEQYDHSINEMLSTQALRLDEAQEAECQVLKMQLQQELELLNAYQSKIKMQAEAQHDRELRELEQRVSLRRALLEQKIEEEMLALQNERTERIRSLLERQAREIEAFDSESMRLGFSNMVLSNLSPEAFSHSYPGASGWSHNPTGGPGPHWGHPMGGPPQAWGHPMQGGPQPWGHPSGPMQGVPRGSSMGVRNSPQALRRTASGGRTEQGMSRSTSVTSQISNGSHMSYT

[14] = target: Serine/threonine-protein kinase MRCK alpha (Homo sapiens, UniProt Q5VT25)
[15] = target: Macrophage colony-stimulating factor 1 receptor (Homo sapiens, UniProt P07333);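 also: value comes from the Navigating the Kinome screening panel, CSF1R member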
[16] = target: Tyrosine-protein kinase SYK (Homo sapiens, UniProt P43405)
[17] = target: Insulin-like growth factor 1 receptor (Homo sapiens, UniProt P08069); assay: Navigating the Kinome. Panel member name: IGF1R

Sequence of Casein kinase II subunit alpha (P68400 whole entry): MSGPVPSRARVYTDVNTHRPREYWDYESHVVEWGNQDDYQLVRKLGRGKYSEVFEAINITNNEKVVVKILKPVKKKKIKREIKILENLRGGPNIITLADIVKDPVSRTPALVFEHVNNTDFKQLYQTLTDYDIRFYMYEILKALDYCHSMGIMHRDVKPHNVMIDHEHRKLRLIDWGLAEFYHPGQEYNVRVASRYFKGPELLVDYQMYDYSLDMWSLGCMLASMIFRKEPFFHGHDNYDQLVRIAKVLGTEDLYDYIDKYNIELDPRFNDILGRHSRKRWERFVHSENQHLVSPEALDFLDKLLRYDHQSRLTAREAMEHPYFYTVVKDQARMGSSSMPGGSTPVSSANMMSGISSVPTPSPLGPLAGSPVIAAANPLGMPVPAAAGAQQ
Sequence of Serine/threonine-protein kinase MRCK alpha (Q5VT25 whole entry): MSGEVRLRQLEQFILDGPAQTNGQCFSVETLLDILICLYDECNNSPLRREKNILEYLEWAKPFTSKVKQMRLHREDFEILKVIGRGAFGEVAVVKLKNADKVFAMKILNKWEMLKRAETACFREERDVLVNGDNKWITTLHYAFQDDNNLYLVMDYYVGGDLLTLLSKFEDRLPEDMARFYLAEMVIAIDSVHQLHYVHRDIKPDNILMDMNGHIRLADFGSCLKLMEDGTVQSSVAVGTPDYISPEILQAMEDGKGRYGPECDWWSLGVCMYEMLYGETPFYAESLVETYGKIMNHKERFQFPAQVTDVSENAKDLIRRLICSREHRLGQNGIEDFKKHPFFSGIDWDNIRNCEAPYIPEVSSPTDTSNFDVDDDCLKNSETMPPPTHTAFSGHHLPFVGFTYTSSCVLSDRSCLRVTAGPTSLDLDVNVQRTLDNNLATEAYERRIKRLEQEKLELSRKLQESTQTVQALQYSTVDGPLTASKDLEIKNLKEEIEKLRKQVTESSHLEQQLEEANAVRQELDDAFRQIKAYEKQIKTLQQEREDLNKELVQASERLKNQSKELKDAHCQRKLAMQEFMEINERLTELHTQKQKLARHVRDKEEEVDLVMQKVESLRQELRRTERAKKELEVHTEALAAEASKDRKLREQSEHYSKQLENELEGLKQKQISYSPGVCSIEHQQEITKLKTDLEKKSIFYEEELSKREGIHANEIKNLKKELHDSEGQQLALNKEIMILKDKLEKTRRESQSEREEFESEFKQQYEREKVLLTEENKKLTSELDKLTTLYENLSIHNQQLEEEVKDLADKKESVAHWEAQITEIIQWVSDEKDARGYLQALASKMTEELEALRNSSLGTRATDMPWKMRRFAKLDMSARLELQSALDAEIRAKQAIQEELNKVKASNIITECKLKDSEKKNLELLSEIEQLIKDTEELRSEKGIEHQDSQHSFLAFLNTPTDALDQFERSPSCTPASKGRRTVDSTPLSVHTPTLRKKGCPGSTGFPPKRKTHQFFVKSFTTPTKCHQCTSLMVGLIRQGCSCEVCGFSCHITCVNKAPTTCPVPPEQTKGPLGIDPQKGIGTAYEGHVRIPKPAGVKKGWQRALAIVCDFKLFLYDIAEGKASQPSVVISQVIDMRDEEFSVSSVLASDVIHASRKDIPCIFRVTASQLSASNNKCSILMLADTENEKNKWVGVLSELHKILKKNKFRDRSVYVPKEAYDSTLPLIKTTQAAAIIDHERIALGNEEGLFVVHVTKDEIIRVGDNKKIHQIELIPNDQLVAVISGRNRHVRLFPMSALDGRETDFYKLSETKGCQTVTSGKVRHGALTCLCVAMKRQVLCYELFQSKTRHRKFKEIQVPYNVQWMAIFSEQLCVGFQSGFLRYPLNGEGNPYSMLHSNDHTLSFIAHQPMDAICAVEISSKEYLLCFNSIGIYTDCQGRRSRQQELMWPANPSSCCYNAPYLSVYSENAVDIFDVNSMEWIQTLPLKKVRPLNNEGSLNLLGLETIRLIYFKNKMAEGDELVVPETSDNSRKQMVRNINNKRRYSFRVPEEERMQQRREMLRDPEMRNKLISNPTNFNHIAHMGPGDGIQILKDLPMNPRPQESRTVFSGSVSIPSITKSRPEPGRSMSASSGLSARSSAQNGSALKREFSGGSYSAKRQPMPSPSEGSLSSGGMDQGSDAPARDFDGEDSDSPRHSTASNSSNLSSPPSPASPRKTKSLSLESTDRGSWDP
Sequence of Mitogen-activated protein kinase 8 (P45983 whole entry): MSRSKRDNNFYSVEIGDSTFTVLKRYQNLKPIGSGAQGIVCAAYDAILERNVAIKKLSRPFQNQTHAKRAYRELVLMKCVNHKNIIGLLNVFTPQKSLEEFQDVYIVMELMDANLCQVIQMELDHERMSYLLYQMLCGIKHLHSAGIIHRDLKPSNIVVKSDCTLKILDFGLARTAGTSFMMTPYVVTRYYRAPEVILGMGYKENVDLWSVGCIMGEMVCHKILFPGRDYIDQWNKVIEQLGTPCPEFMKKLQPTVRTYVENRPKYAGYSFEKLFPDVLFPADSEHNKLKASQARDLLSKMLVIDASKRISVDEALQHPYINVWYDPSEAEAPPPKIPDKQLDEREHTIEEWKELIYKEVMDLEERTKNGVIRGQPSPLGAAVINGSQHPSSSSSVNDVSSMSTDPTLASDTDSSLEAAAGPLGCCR
Sequence of Death-associated protein kinase 3 (O43293 whole entry): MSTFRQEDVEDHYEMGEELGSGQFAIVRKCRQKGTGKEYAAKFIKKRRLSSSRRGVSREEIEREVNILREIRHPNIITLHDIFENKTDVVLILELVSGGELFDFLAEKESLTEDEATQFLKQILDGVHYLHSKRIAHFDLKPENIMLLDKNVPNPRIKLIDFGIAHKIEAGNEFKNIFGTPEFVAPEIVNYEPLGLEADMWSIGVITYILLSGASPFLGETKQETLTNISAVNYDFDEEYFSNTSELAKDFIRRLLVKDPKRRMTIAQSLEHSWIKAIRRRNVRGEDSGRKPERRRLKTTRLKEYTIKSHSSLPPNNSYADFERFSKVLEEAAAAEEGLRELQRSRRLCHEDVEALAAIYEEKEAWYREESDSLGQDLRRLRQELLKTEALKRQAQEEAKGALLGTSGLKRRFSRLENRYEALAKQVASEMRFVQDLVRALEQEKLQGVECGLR
Sequence of Serine/threonine-protein kinase Chk1 (O14757 whole entry): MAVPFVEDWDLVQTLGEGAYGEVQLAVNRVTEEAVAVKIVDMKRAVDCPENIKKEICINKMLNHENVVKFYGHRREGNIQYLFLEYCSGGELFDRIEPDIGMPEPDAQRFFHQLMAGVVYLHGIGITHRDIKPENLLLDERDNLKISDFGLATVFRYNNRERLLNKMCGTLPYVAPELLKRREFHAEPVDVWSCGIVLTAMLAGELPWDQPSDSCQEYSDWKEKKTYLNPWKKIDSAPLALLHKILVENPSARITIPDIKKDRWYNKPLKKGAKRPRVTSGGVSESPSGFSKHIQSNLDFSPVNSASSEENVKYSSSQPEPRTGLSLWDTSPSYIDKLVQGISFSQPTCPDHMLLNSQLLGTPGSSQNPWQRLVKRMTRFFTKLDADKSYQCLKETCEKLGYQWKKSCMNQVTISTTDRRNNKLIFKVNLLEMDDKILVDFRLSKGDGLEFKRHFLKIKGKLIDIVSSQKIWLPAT
Sequence of Serine/threonine-protein kinase PLK3 (Q9H4B4 whole entry): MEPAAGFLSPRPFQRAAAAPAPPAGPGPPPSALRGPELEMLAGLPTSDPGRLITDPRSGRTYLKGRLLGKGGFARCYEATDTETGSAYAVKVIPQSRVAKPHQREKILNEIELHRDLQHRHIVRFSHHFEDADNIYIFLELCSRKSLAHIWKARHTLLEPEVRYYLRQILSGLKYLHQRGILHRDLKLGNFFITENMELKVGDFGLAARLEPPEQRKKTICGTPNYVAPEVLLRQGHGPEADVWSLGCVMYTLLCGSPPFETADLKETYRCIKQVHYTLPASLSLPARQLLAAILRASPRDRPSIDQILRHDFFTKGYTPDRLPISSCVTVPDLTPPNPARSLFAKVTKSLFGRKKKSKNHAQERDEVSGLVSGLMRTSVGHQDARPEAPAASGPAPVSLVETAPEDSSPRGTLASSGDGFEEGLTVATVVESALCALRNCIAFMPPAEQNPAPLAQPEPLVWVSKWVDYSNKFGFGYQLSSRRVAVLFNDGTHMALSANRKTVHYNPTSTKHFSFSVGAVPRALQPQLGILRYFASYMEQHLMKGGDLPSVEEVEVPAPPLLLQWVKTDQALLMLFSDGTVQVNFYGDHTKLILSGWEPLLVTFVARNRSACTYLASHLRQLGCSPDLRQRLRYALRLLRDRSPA

Row | Compound | Ki [1] | Ki (Aurora kinase A) | Ki [2] | Ki [3] | Ki [4] | Ki [5] | Ki [6] | Ki [7] | Ki [8] | Ki [9] | Ki [10] | Ki [11] | Ki [12] | Ki [13] | Ki [14] | Ki [15] | Ki [16] | Ki [17] | further results
1 | NC(=O)c1cc(-c2ccnc(N)n2)[nH]c1-c1ccc(Cl)cc1Cl | > 1580 nM (inactive) | > 1580 nM (inactive) | > 631 nM (inactive) | > 7940 nM (inactive) | > 3980 nM (inactive) | > 1260 nM (inactive) | 398 nM (active) | 631 nM (active) | > 398 nM (inactive) | 398 nM (active) | 251 nM (active) | 200 nM (active) | > 7940 nM (inactive) | 251 nM (active) | 1260 nM (active) | > 2510 nM (inactive) | > 1580 nM (inactive) | > 2000 nM (inactive) | pKi [6]: 6.4; pKi [7]: 6.2; pKi [9]: 6.4; pKi [10]: 6.6; pKi [11]: 6.7; pKi [13]: 6.6; pKi [14]: 5.9
2 | NC(COc1cncc(-c2ccc3c(c2)C(=Cc2ccco2)C(=O)N3)c1)Cc1c[nH]c2ccccc12 (stereo not drawn) | 6.31 nM (active) | > 1580 nM (inactive) | > 631 nM (inactive) | 501 nM (active) | > 3980 nM (inactive) | 501 nM (active) | 316 nM (active) | 251 nM (active) | > 398 nM (inactive) | 20 nM (active) | 31.6 nM (active) | > 6310 nM (inactive) | 398 nM (active) | 126 nM (active) | 316 nM (active) | > 2510 nM (inactive) | 1580 nM (active) | > 1000 nM (inactive) | –
